Patent EP0274444A2, “Solution inbuprofen complexes, compositions and processes for preparing the same” (priority 1987, dated 1988)

Assay: pH of the resulting solutions (pH meter with combination electrode)
Type: physicochemical
Settings: Mole Ratio Cyclodextrin:Ibuprofen 0:1 (ibuprofen alone, saturated solution)
Procedure: The pH of each solution was measured using an Orion Model 701 pH meter with a combination electrode.

## CC(C)Cc1ccc(C(C)C(=O)O)cc1 (stereo not shown) [Ibuprofen, ibuprofen]
  pH: 4.56
